According to ChEMBL document CHEMBL2062512, “Metronidazole thiosalicylate conjugates: synthesis, crystal structure, docking studies and antiamoebic activity” (Bioorg Med Chem Lett, 2012):

Assays:
Entamoeba histolytica = experiment: […] activity against Entamoeba histolytica HM-1:IMSS after 72 hrs by eosin-staining method; format: functional, organism-based
MCF7 = experiment: Cytotoxicity against human MCF7 cells after 48 hrs by MTT assay; format: cell-based; details: MCF7, 48 h

Row | IC50 (Entamoeba histolytica) [nM] | SMILES | IC50 (MCF7) [nM]
1 | 21 | COC(=O)c1ccccc1S(=O)(=O)CCn1c([N+](=O)[O-])cnc1C | > 250000
2 |  | Cc1ncc([N+](=O)[O-])n1CCO [METRONIDAZOLE] | > 250000
3 | 15 | COC(=O)c1ccccc1[S+]([O-])CCn1c([N+](=O)[O-])cnc1C (configuration not stated) | > 250000
4 | 28 | COC(=O)c1ccccc1SCCn1c([N+](=O)[O-])cnc1C | > 250000
